# Assay results from ChEMBL document CHEMBL3872260, “Influence of chain length on the activity of tripeptidomimetic antagonists for CXC chemokine receptor 4 (CXCR4)” (Bioorg Med Chem, 2017).
# Target: C-X-C chemokine receptor type 4 (Homo sapiens, UniProt P61073)
# Test: Antagonist activity at wild-type human CXCR4 expressed in COS7 cells co-expressing chimeric galphai assessed as inhibition of CXCL12-induced [3H]inositol-phosphate accumulation measured after 90 mins in presence of Myo-[2-3H]-inositol by scintillation proximity assay
# Type: functional, cell-based, COS-7
# Sequence of C-X-C chemokine receptor type 4 (P61073 whole entry): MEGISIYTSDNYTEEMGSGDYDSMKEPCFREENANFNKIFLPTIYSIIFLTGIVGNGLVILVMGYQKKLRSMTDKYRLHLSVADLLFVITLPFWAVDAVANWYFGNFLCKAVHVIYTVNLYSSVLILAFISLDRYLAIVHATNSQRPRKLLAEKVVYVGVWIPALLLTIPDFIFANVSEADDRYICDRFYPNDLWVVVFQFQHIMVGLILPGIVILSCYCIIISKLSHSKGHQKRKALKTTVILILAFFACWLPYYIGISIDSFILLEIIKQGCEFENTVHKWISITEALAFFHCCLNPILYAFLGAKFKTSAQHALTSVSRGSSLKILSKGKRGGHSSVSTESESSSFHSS
Structure (SMILES),EC50 (read-out: EC50),EC50 (read-out: pEC50 (converted))
N=C(N)NCCC[C@H]1C(=O)N(CCc2ccc3ccccc3c2)C[C@H]2SC[C@@H](CCNC(=N)N)C(=O)N21,> 100 µM,
N=C(N)NCCCC[C@H]1C(=O)N(CCc2ccc3ccccc3c2)C[C@@H]2SC[C@H](CCCNC(=N)N)C(=O)N21,> 100 µM,
N=C(N)NCCCC[C@H]1CS[C@H]2CN(CCc3ccc4ccccc4c3)C(=O)[C@H](CCCNC(=N)N)N2C1=O,> 100 µM,< 100 µM
N=C(N)NCCCC1CSC2CN(Cc3ccc4ccccc4c3)C(=O)[C@H](CCCNC(=N)N)N2C1=O (mixture of isomers),> 100 µM,< 100 µM
N=C(N)NCCCC1CSC2CN(Cc3cccc4ccccc34)C(=O)[C@H](CCCNC(=N)N)N2C1=O (mixture of isomers),> 100 µM,

# Now from value to molecule:
EC50 (read-out: EC50),EC50 (read-out: pEC50 (converted)),Structure (SMILES)
> 100 µM,< 100 µM,N=C(N)NCCC[C@H]1C(=O)N(CCc2ccc3ccccc3c2)C[C@@H]2SC[C@H](CCNC(=N)N)C(=O)N21
> 100 µM,< 100 µM,N=C(N)NCCCC[C@H]1C(=O)N(CCc2ccc3ccccc3c2)C[C@H]2SC[C@@H](CCNC(=N)N)C(=O)N21
> 100 µM,< 100 µM,N=C(N)NCCCC[C@@H]1CS[C@@H]2CN(CCc3ccc4ccccc4c3)C(=O)[C@H](CCCNC(=N)N)N2C1=O
> 100 µM,< 100 µM,N=C(N)NCCCC[C@H]1C(=O)N(CCc2ccc3ccccc3c2)C[C@@H]2SC[C@H](CCNC(=N)N)C(=O)N21
> 100 µM,< 100 µM,N=C(N)NCCCC[C@H]1C(=O)N(CCc2ccc3ccccc3c2)C[C@H]2SC[C@@H](CCCNC(=N)N)C(=O)N21
61 µM,,N=C(N)NCCCC1CSC2CN(Cc3ccc4ccccc4c3Br)C(=O)[C@H](CCCNC(=N)N)N2C1=O (mixture of isomers)
